Data: ChEMBL document CHEMBL1921741, “Triggering of erythrocyte cell membrane scrambling by ursolic acid” (J Nat Prod, 2011)
Activity calls are given as the source filed them. The calls are words filed in the database; no cut-off is given here.

Legend:
Erythrocyte [1] = assay: Induction of eryptosis in human erythrocytes assessed as hemolysis-mediated hemoglobin release at 1 uM after 48 hrs by photometric analysis; type: functional, cell-based
Erythrocyte [2] = assay: Induction of eryptosis in human erythrocytes assessed as phospholipid scrambling of the cell membrane at >= 5 uM after 48 hrs using Annexin V-FITC staining by confocal laser scanning microscopy; type: functional, cell-based
Erythrocyte [3] = assay: Induction of eryptosis in human erythrocytes assessed as cell shrinkage measuring decrease in forward scatter of the cells at 5 uM after 48 hrs by […] FACS analysis; type: functional
Erythrocyte [4] = assay: Induction of eryptosis in human erythrocytes assessed as increase in cytosolic Ca2+ concentration at >= 5 uM after 48 hrs by fluo-3/AM-fluorescence-based FACS analysis; type: functional, cell-based
Erythrocyte [5] = assay: Induction of eryptosis in human erythrocytes assessed as stimulation of ceramide formation at 10 uM after 48 hrs by FITC-based flow cytometry; type: functional, cell-based
Erythrocyte [6] = assay: Induction of eryptosis in human erythrocytes assessed as decrease in intracellular ATP concentration at 10 uM after 48 hrs by luciferase-based luminometry; type: functional, cell-based
Erythrocyte [7] = assay: Induction of eryptosis in human erythrocytes assessed as phospholipid scrambling of the cell membrane at 10 uM after 48 hrs using Annexin V-FITC staining by confocal laser scanning microscopy in absence of Ca2+; type: functional, cell-based
Erythrocyte [8] = assay: Induction of apoptosis in human erythrocytes assessed as scrambling of the cell membrane at 0.5 to 10 uM after 48 hrs using Annexin V-FITC staining by confocal laser scanning microscopy in presence of Ca2+; type: functional, cell-based

In the case of `C[C@H]1[C@H](C)CC[C@]2(C(=O)O)CC[C@]3(C)C(=CC[C@@H]4[C@@]5(C)CC[C@H](O)C(C)(C)[C@@H]5CC[C@]43C)[C@H]12`, the Activity (Erythrocyte [1]) is reported as “Active”, the Activity (Erythrocyte [2]) is reported as “Active” and the Activity (Erythrocyte [3]) is reported as “Active”. For the same compound, the Activity (Erythrocyte [4]) was “Active”, the Activity (Erythrocyte [5]) was “inactive” and the Activity (Erythrocyte [6]) was “inactive”. The Activity (Erythrocyte [7]) was “inactive” and the Activity (Erythrocyte [8]) was “Active”.
